Marks after values point to notes of the source that are not given here.
Assays:
[1] = Plasma Vitamin E in exercising sled dogs
Protocol: (§1) Three groups of twelve dogs (mixed breed Alaskan sled dogs (husky pointer crosses)) were fed commercially available Pro Plan® Performance chicken and rice formula dog food as a basal diet, and each group was fed either: a placebo consisting of about 0.5 g maltodextrin, about 2 mg astaxanthin, or about 400 mg Vitamin E (alpha-tocopherol). Pro Plan® dog food is available from Nestlé Purina Pet Care Company in St. Louis, Mo. The dogs were trained three times a week on an exercise wheel for a period of six weeks. On the sixth week, the dogs rested for four days and then exercised three days in a row. Blood samples were collected before exercise on day one, immediately after exercise on day three, and at 24 hours and 48 hours after exercise. Plasma from the blood samples was analyzed for concentrations of malondialdehyde, F-2 isoprostanes, Vitamin E, creatine kinase activity as well as oxygen radical absorption capacity (ORAC).
(§2) All the dogs were maintained on the same basal diet (Purina Pro Plan® Performance chicken and rice formula) for one month prior to the onset and the entire duration of the experiment. Each dog was fed as an individual to maintain an optimal body condition score of 4/10.
(§3) Thirty-six sled dogs were housed at the Nestle Purina facility in Salcha, Ak. The dogs were divided into three groups of 12 dogs so that each group was alike in age, sex and ability distribution. A treatment was randomly assigned to each group by drawing from a hat. Group “A” was assigned about 400 mg Vitamin E/day, group “B” was assigned about 2 mg Astaxanthin/day and group “C” was assigned about 500 mg maltodextrin as a placebo. The people responsible for feeding, care, and training of the dogs were blind as to the identity of treatments until the completion of the study. Dogs were treated for six weeks before the onset of testing. They were also trained lightly for two sessions per week during this time period. Training sessions consisted of walking at 14 kilometers per hour for 2 hours in a 40-foot diameter circle tethered to a dog-walking wheel.
(§4) The testing took place over a six day period. On day one, pre-exercise blood samples were drawn from all the dogs. On day two, the dogs ran twelve km while pulling an all terrain vehicle (ATV) weighing 500 pounds. On day three, the dogs walked 16 miles on the dog wheel. On day four, the dogs again pulled the ATV for a distance of 12 kilometers. Immediately after exercise on day four, blood samples were drawn. Additional blood samples were drawn again at 24 hours and 48 hours after exercise. This sampling schedule was designed to examine changes in the parameters measured during exercise and during recovery. Samples were obtained by jugular venipuncture and collected into evacuated glass tubes containing sodium EDTA as an anticoagulant. Once collected they were kept on ice for not more than 10 minutes before they were centrifuged at 10,000 revolutions per minute (RPM) in 4° C. for a period of 10 minutes. The plasma was transferred into freezer vials where the dead space was replaced with gaseous nitrogen to decrease further oxidation during storage. The vials were then capped and immediately quenched in liquid nitrogen. The vials were recovered from liquid nitrogen and stored at −70° C. until analyzed. Each plasma sample was analyzed for malondialdehyde concentration using a standard HPLC, F2-isoprostane concentration utilizing a mass spectrometer and standard ELISA, Vitamin E concentration utilizing a standard HPLC, and Oxidative Radical Absorbance Capacity (ORAC test kit, Oxford Co.
(§5) F2 isoprostane and CK data was evaluated using a two way ANOVA for repeated measures. Post hoc comparisons were made using a student's t test corrected for repeated measures by the Bonneferroni method. Statistical significance was set at p<0.05. The other data was also evaluated using ANOVA. The abbreviation “se” used with respect to the data in the tables below refers to standard error.

malondialdehyde = experiment: Plasma malondialdehyde (MDA) in exercising sled dogs; assay type: in vivo, dog
Protocol: as §1, §2, §3, §4, §5

F2-isoprostane = experiment: Plasma F2-isoprostane (F2I) in exercising sled dogs; assay type: in vivo, dog; settings: for Plasma F2I compared to the placebo group: in words
Protocol: as §1, §2, §3, §4, §5

total ORAC = experiment: Plasma total Oxidative Radical Absorptive Capacity (ORAC) in exercising sled dogs; assay type: in vivo, dog; settings: for ORAC improvement by supplementation: any of the time periods measured, in words
Protocol: as §1, §2, §3, §4, §5

Creatine Kinase = experiment: Plasma creatine kinase (CK) in exercising sled dogs; assay type: in vivo, dog
Protocol: as §1, §2, §3
as §4, with “The plasma was transferred into freezer vials where the dead space was replaced with gaseous nitrogen to decrease further oxidation during storage. The vials were then capped and immediately quenched in liquid nitrogen.” left out
F2 isoprostane and CK data was evaluated using a two way ANOVA for repeated measures. […] The other data was also evaluated using ANOVA. […]

[2] = tested on: canine lens epithelial cells; experiment: UV-stressed canine lens epithelial cells supplemented with astaxanthin; assay type: cell-based
Excerpt: An in vitro experiment may be performed using canine lens epithelial cells supplemented with astaxanthin at physiological levels.

cataract formation = experiment: In vivo cataract formation study, slit-lamp test; design: species or system dog; settings: dogs, e.g. two year study; astaxanthin optionally with Vitamin E, lutein, zeaxanthin, zinc
Excerpt: In a model study, 40 dogs could be chosen and randomly allocated to either the control group or to a treatment group receiving AAFCO recommended levels of antioxidants. The treatment group would receive astaxanthin and may also receive one or more of Vitamin E, lutein, zeaxanthin and zinc.

[3] = tested on: peripheral blood mononuclear cells (PBMCs); experiment: In vitro lymphoproliferation of stimulated PBMC; assay type: cell-based, dog; settings: astaxanthin added directly to the media during stimulation
[4] = tested on: natural killer (NK) cells; experiment: NK cell cytotoxicity of cells from animals fed astaxanthin; assay type: in vivo, dog; settings: animals fed a diet containing astaxanthin vs control animals
Protocol: (§6) To assess the effect of astaxanthin supplementation on immune function, dogs may be fed a diet containing astaxanthin and/or Vitamin E for 16 weeks. The amount of astaxanthin used may be 0, 1, 5, 10, 20, and 40 mg per animal per day. Various assays may be performed to assess immune function.
In another assay, natural killer (NK) cell cytotoxicity is assessed for NK cells isolated from animals that are fed a diet including astaxanthin supplementation.

[5] = Delayed-type hypersensitivity skin reactions; assay type: in vivo, dog; settings: animals fed a diet containing astaxanthin vs control animals
Protocol: as §6
Delayed-type hypersensitivity may also be assessed in animals given a diet supplemented with astaxanthin. In these assays, control animals and animals fed a diet containing astaxanthin are given cutaneous injections of saline, a mitogen or a vaccine of distemper virus. The animals are then assessed to measure the skin reactions to mitogen, virus and control. In animals fed a diet containing astaxanthin, the skin reactions are more robust for virus and mitogen than that found in control animals.

[6] = Antibody titers against an antigen; assay type: in vivo, dog; settings: animals fed a diet containing astaxanthin vs control animals
Protocol: as §6
Control animals and animals fed a diet containing astaxanthin may also be assessed for the robustness of the immune response against an antigen. For example, antibody titers against an antigen may be measured for control animals and animals fed a diet containing astaxanthin.

osteoarthritis = experiment: Osteoarthritis diet study: plasma and synovial fluid markers, gait; assay type: in vivo, dog
Excerpt: A diet supplemented with astaxanthin may be shown to reduce inflammation and associated pain in osteoarthritis. […] At 12 weeks of treatment, plasma and synovial fluid samples are taken from each animal and assayed for total antioxidant activity, and levels of malionaldehyde, prostaglandin, isoprostanes, MMPs and TIMPs. Additionally, the gait of the dogs may be assessed using standard force plate analyses.

[7] = cited from earlier work
[8] = reported; in words; cited from earlier work
[9] = in words; cited from earlier work
[10] = Pre-ex, sled dogs, about 2 mg astaxanthin/day or about 400 mg Vitamin E/day for six weeks

## CC1=C(/C=C/C(C)=C/C=C/C(C)=C/C=C/C=C(C)/C=C/C=C(C)/C=C/C2=C(C)C(=O)[C@@H](O)CC2(C)C)C(C)(C)C[C@H](O)C1=O [ATX, astaxanthin]
[1]; dog, in vivo
  Plasma Vitamin E concentration compared between treatment groups: no significant difference
malondialdehyde; 24 hour post, same treatment
  Plasma MDA (mean): 0.95
malondialdehyde; 24 hours post exercise, in words
  Plasma MDA compared between treatment groups: lower than either the placebo value or the Vitamin E value
malondialdehyde; Pre to 48 hour Post
  Change in Plasma MDA from Baseline: −0.004
F2-isoprostane; 24 hour post, same treatment
  Plasma F2 Isoprostane concentration (mean): 90
F2-isoprostane; 48 hour post, same treatment
  Plasma F2 Isoprostane concentration (mean): 66
F2-isoprostane; Post-ex, same treatment
  Plasma F2 Isoprostane concentration (mean): 52
F2-isoprostane
  Plasma F2I compared to the placebo group: lower F2I values immediately post-exercise and at 24 hours post-exercise
Total ORAC; 24 hour post, same treatment
  Plasma total ORAC (mean): 5700
Total ORAC; 48 hour post, same treatment
  Plasma total ORAC (mean): 4800
Total ORAC
  ORAC improvement by supplementation: not improved
Creatine Kinase; all time periods but 24 hours post-exercise, in words
  Plasma CK compared to the Vitamin E group: lower CK values than the Vitamin E group
[2]; canine lens epithelia stressed with UV light, astaxanthin at physiological levels
  free radical formation and lipid peroxidation products: significantly reduce
[2]; canine lens epithelial cells stressed with UV light
  cell death: significantly less cell death
Cataract formation
  cataract formation and severity (slit-lamp test): control group has significantly more cataract formation
[3]
  proliferation of PBMC: increases proliferation of cells significantly more
[4]
  NK cytotoxicity: significantly increased
[5]
  skin reactions to virus and mitogen (delayed-type hypersensitivity): more robust
[6]
  antibody titers against an antigen: higher antibody titers
osteoarthritis; 12 weeks, compared to controls
  gait (force plate analyses): significant improvement in gait
osteoarthritis; plasma and synovial fluid, 12 weeks, 1, 5, 10, 20, or 40 mg per animal per day
  isoprostanes, total antioxidant activity and MMPs: decrease
[7]
  in vitro oxygen radical absorptive capacity relative to Vitamin E: 4 times
[8]
  potency in preventing lipid peroxidation and scavenging free radicals: more potent than Vitamin E or Vitamin C
[9]
  solubility (lipid / water compartments of the cell): soluble in both lipid and water compartments of the cell

## Cc1c(C)c2c(c(C)c1O)CC[C@@](C)(CCC[C@H](C)CCC[C@H](C)CCCC(C)C)O2 [Vitamin E, alpha-tocopherol]
[1]; 24 hour post, same treatment
  Plasma Vitamin E (mean): 4720
[1]; 48 hour post, same treatment
  Plasma Vitamin E (mean): 4520
[1]; Post-ex, same treatment
  Plasma Vitamin E (mean): 3540
[1]; [10]
  Plasma Vitamin E (mean): 3370
[1]; all time periods, in words
  Plasma Vitamin E concentration compared between treatment groups: greatest
malondialdehyde; 24 hour post, same treatment
  Plasma MDA (mean): 1.44
malondialdehyde; 48 hour post, same treatment
  Plasma MDA (mean): 1.44
malondialdehyde; Post-ex, same treatment
  Plasma MDA (mean): 1.17
malondialdehyde; Pre to 24 hour post
  Change in Plasma MDA from Baseline: −0.071
malondialdehyde; Pre to 48 hour Post
  Change in Plasma MDA from Baseline: −0.069
malondialdehyde; Pre to Post
  Change in Plasma MDA from Baseline: −0.336*
malondialdehyde; [10]
  Plasma MDA (mean): 1.51
F2-isoprostane; 24 hour post, same treatment
  Plasma F2 Isoprostane concentration (mean): 130
F2-isoprostane; 48 hour post, same treatment
  Plasma F2 Isoprostane concentration (mean): 78
F2-isoprostane; Post-ex, same treatment
  Plasma F2 Isoprostane concentration (mean): 223
F2-isoprostane; [10]
  Plasma F2 Isoprostane concentration (mean): 144
F2-isoprostane
  Plasma F2I compared to the placebo group: not different from the placebo value except at the 24 hour post-exercise time period where it was lower
Total ORAC; 24 hour post, same treatment
  Plasma total ORAC (mean): 7590
Total ORAC; 48 hour post, same treatment
  Plasma total ORAC (mean): 4840
Total ORAC; Post-ex, same treatment
  Plasma total ORAC (mean): 5850
Total ORAC; [10]
  Plasma total ORAC (mean): 7480
Total ORAC
  ORAC improvement by supplementation: not improved
Creatine Kinase; 24 hour post, same treatment
  Plasma Creatine Kinase (mean): 184
Creatine Kinase; 48 hour post, same treatment
  Plasma Creatine Kinase (mean): 204
Creatine Kinase; Post-ex, same treatment
  Plasma Creatine Kinase (mean): 208
Creatine Kinase; [10]
  Plasma Creatine Kinase (mean): 139
[9]
  solubility (lipid / water compartments of the cell): lipid soluble only

— US8034373B2, “Methods and compositions for reducing oxidative stress in an animal” (Nestec S. A., priority 2004, dated 2011)
